Results from EP0401096A1, “Agents and complexes of ion Mg++ facilitating absorption of magnesium in a human or animal organism, and pharmaceutical or dietetic compositions useful for the administration of magnesium in a human or animal organism” (LABORATOIRES LUCIEN, priority 1989, dated 1990).

Assays:
[1] = Magnesium balance in rats after oral administration (first experiment, 3 lots of 20); format: in vivo, rat; conditions: mean (M), oral 38,88 mg de Mg2+/kg
Procedure: L'essai porte sur 60 rats mâles S.P.F. de souche "CD", d'un poids moyen de 60 à 80 g à leur arrivée. Ils sont maintenus en animalerie conventionnelle dans des conditions identiques de température (21°C +/- 1°C), d'hygrométrie (40 à 70 %) et de luminosité (12h/24).
Dès leur arrivée, les animaux sont placés en cage à métabolisme et reçoivent un aliment contenant 570 mg de Mg2+/kg : concentration nécessaire et suffisante pour maintenir chez l'animal une magnésémie normale.
4 jours après leur arrivée, au temps "t-16h" de l'essai, soit 16 h avant l'administration des traitements (temps "t"), les animaux sont pesés, mis à jeun et le volume d'eau déminéralisée mis à leur disposition est exactement mesuré.
Au temps "t-1h" soit 1 h avant l'administration des traitements, l'eau de boisson est retirée. Elle est redistribuée 30 minutes après cette administration, le volume étant exactement mesuré.
Au temps "t+24h" les animaux sont sacrifiés par dislocation cervicale et le contenu de la vessie et des intestins est prélevé.
Les animaux sont répartis en 3 lots de 20 animaux chacun : • . Lot I : Témoins recevant 40 ml/kg d'eau déminéralisée; • . Lot II : Traités recevant 38,88 mg de Mg2+/kg sous forme de MgCl2, sous un volume de 40 ml/kg d'eau déminéralisée; • . Lot III : Traités recevant l'association "MgCl2 + acide malique" à la dose de 38,88 mg de Mg2+/kg sous forme de MgCl2 + 408 mg d'acide malique/kg, sous un volume de 40 ml/kg d'eau déminéralisée (pH ajusté à 5), ce qui correspond à une concentration en magnésium CMg = 0,04 mol.dm-3 et à une concentration de (DL)-malate CDLM = 0,076 mol.dm-3.
• a/ - Avant traitement : "t - 16 h" à "t" . Recueil des urines et mesure du volume. . Mesure de la consommation hydrique/15 h (les animaux étant privés d'eau de boisson 1 h avant l'administration des traitements). • b/ - Traitement : "t" . Pesée des animaux. . Administration des traitements, voie orale, par tubage oesophagien. • c/ - Après traitement : "t" à "t + 24 h" • c.1. Exploration urinaire : . […]

[2] = Magnesium balance in rats after oral administration (experiment coded 1.33, 4 lots of 18); format: in vivo, rat; conditions: mean (M), experiment 1.33
Excerpt: D'autres expérimentations basées sur des protocoles comparables ont confirmé les résultats ci-dessus. Elles ne feront pas toutefois l'objet d'une présentation en détails. Seuls les résultats de l'expérimentation suivante mettant en jeu l'acide malique et l'acide citrique seront présentés de façon globale dans les tableaux 10 et 11 ci-après.
La nouvelle expérimentation (codée 1.33) a été réalisée sur 4 lots de 18 animaux chacun, les lots I, II et III recevant les mêmes traitements que ceux administrés aux lots correspondants dans le cadre de l'expérimentation précédente et le lot IV recevant l'association "MgCl2 + acide citrique" à la dose de 38,88 mg de Mg2+/kg sous forme de MgCl2 + 1345 mg d'acide citrique/kg, sous un volume de 40 ml/kg d'eau déminéralisée (pH ajusté à 5), ce qui correspond à une concentration en magnésium CMg = 0,04 mol.dm-3 et à une concentration de citrate CTA = 0,16 mol.dm-3. Tableau 10

[3] = Potentiometric titration, protonation constants of the ligand ([…]); format: physicochemical; conditions: proton-malonate, aqueous solution, 37°C
Procedure: La méthode potentiométrique associée aux techniques informatiques a été utilisée pour cette étude. Les constantes de protonation du ligand, utilisées par la suite comme références, ont été calculées au moyen d'un programme informatique ([…]) à partir de données expérimentales provenant de titrages réalisés en solution aqueuse à 37°C et sous atmosphère d'azote.
(§1) A partir des données expérimentales des titrages, le programme […] calcule les constantes par la méthode des moindres carrés. Parmi les différentes combinaisons de complexes possibles, seules sont retenues celles pour lesquelles les critères numériques (notamment la somme des carrés des résidus) sont convenables. Le meilleur ensemble est finalement choisi d'après le tracé des courbes de formation simulées au moyen d'un troisième programme informatique (PSEUDOPLOT) : c'est celui qui permet d'obtenir la meilleure coïncidence entre courbes expérimentale (figure 2) et simulée (figure 3).

[4] = Potentiometric titration, formation constants of magnesium-ligand complexes ([…], ZAPAPLOT, PSEUDOPLOT); format: physicochemical; conditions: magnésium-malonate, 37°C
Excerpt: La complexation dans chaque système magnésium-ligand a ensuite été étudiée à partir de plusieurs titrages en solution aqueuse du ligand en présence de magnésium, pour différents rapports de concentrations métal-ligand correspondant à l'éventail le plus large possible de conditions thérapeutiques. Ces dosages se traduisent graphiquement par le tracé des courbes de protonation s = f ( -log[H] ), où s est le nombre moyen de protons liés au ligand. Ce type de courbes permet de visualiser la complexation. Par exemple, sur la figure 1, relative au système magnésium-malonate, on a représenté la courbe de protonation de référence du ligand par un trait plein et matérialisé les points expérimentaux des titrages du ligand en présence de magnésium par les symboles +, x, , □, ◁ dans l'ordre des rapports de concentrations métal/ligand croissants. On remarque deux zones de pH différentes : - l'une, de pH 2 à 3, pour laquelle les points se superposent à la courbe de protonation de référence, ce qui dénote une absence totale de complexation, - l'autre, de pH 3 à 7, pour laquelle les points sont décalés vers la gauche par rapport à la protonation de référence, c'est-à-dire vers des pH plus acides. Il y a donc une libération d'ions H+ en solution due à la complexation des ions Mg2+ par le malonate.
Cette complexation est confirmée par le tracé de la courbe de formation expérimentale p = f ( -log [L] ) au moyen d'un autre programme (ZAPAPLOT) où p est le nombre moyen de ligands liés au métal (représenté par le degré de formation DF à la figure 2). L'allure de cette courbe donne une idée de la forme sous laquelle le ligand intervient dans les complexes formés et permet d'estimer la valeur de leurs constantes de formation.
as §1

[5] = Potentiometric titration, formation constants of calcium-ligand complexes; format: physicochemical; conditions: calcium-malonate, complexe ML (charge 0); 37°C
Excerpt: Trois cas possibles a priori ont été effectivement rencontrés : • i) si aucune complexation n'est constatée dans les conditions expérimentales précisées plus haut, c'est à dire si le degré de complexation reste nul sur tout le domaine de concentrations en ligand examiné, aucune espèce complexe indépendante ne peut exister dans le fluide gastro-intestinal. Ceci ne signifie pas que les ligands envisagés ne puissent pas coordonner le magnésium à des concentrations beaucoup plus élevées, mais cette possibilité se rapportant à des conditions extra-physiologiques ne présente pas d'intérêt dans le cadre de l'invention. • ii) si l'ensemble de complexes sélectionné d'après les critères ci-dessus n'est constitué que d'espèces ionisées, il est impossible à ces dernières de se dissoudre dans la membrane phospholipidique; les ligands correspondants ne peuvent donc être utilisés comme vecteurs pour l'absorption gastro-intestinale du magnésium. • iii) si l'ensemble retenu contient une ou plusieurs espèces neutres, les ligands correspondants peuvent être a priori des vecteurs efficaces pour l'absorption du magnésium par les membranes séparant le biofluide d'un biofluide voisin. Leur efficacité dépendra toutefois de la proportion de ces espèces neutres dans les conditions thérapeutiques. […]

[6] = coefficient d'utilisation digestive

SMILES	C. abs. ([1]; coefficient d'absorption)	C.u.d. [1, 6]	C.r. ([1]; coefficient de rétention)	C. abs. ([2]; coefficient d'absorption)	C.u.d. [2, 6]	C.r. ([2]; coefficient de rétention)	MgF/24 h ([2]; faecal magnesium, oral 38,88 mg de Mg2+/kg)	MgU/24 h ([2]; urinary magnesium, oral 38,88 mg de Mg2+/kg)	log β ([3]; complexe LH2)	log β ([3]; complexe LH)	log β ([4]; complexe ML3)	log β ([4]; complexe ML (charge 0))	log β ([4]; complexe MLH-1)	log β ([4]; complexe MLH)	log β [5]
[Cl-].[Cl-].[Mg+2] [Lot II, MgCl2]	38,948	73,617	50,083	30,19	66,89	43,78	2,003 mg/100 g de rat	1,873 mg/100 g de rat							
O=C(O)CC(=O)O [MLO, malonate]									7,815	5,235	5,266	2,064	6,326	5,524	1,511
